Values of other authors as cited in patent US20090247553A1, “Highly Pure Paliperidone or a Pharmaceutically Acceptable Salt Thereof Substantially Free of Keto Impurity” (ACTAVIS GROUP PTC EHF, priority 2008, published 2009).

What was measured:
[1] = powder

In the case of Cc1nc2n(c(=O)c1CCN1CCC(c3noc4cc(F)ccc34)CC1)CCCC2O (racemic) [Paliperidone, (±)-3-[2-[4-(6-fluoro-1,2-benzisoxazol-3-yl)-1-piperidinyl]ethyl]-6,7,8,9-tetrahydro-9-hydroxy-2-methyl-4H-pyrido[1,2-a]pyrimidin-4-one], the “solubility in 0.1N HCl” value (0.1N HCl) is listed as 2.3 g/100 ml, the solubility in ethanol (ethanol) is listed as 0.076 g/100 ml and the solubility in water (water) is listed as 0.003 g/100 ml. The hygroscopicity [1] was “non-hygroscopic”.
